Test results from publication PMC3057164, “Caffeoylquinic Acids Are Major Constituents with Potent Anti-Influenza Effects in Brazilian Green Propolis Water Extract” (Evidence-based Complementary and Alternative Medicine : eCAM, 2011).
Where two headings read alike, the source gives them in different places.

Experiments:
[1] = system: influenza A virus strain A/WSN/33 (H1N1); assay: microbe, parasite or virus in culture; assay type: cell-based; details: for EC50: Influenza A virus, MDCK, 48 h
[2] = system: influenza virus; assay type: cell-based; details: 5 μg/mL, influenza virus-infected MDCK cells, data not shown
[3] = system: MDCK cells; assay: Cytotoxicity assay (WST-8) with no viral infection; details: 300 μg/mL, uninfected MDCK cells, Figure 3

Structure (SMILES)	Effect on cell survival rate of virus-infected cells (effective / ineffective) [1]	EC50 [1]	also measured
O=C(/C=C/c1ccc(O)c(O)c1)O[C@@H]1C[C@](O)(C(=O)O)C[C@@H](OC(=O)/C=C/c2ccc(O)c(O)c2)[C@H]1O [3,5-Dicaffeoylquinic acid, 3,5-dicaffeoylquinic acid]	effective	208 µM	
O=C(/C=C/c1ccc(O)c(O)c1)O[C@@H]1[C@H](O)C[C@@](O)(C(=O)O)C[C@H]1OC(=O)/C=C/c1ccc(O)c(O)c1 [3,4-Dicaffeoylquinic acid]	effective	81.1 ± 2.9 µM	EC50 ([1]; read-out: EC50 value on the cell survival): 41.9 µg/mL
O=C(O)/C=C/c1ccc(O)cc1 [p-coumaric acid]	did not have any cell surviving activity		
O=C(/C=C/c1ccc(O)c(O)c1)O[C@@H]1C[C@](O)(C(=O)O)C[C@@H](OC(=O)/C=C/c2ccc(O)c(O)c2)[C@H]1OC(=O)/C=C/c1ccc(O)c(O)c1 [3,4,5-Tricaffeoylquinic acid, 3,4,5-tricaffeoylquinic acid]	effective	115 µM	Cell survival rate of infected cells at 300 μg/mL [1]: dropped to nearly zero; Effect on cell survival of infected cells at 100 μg/mL [1]: effective
NC(=O)c1ncn([C@@H]2O[C@H](CO)[C@@H](O)[C@H]2O)n1 [ribavirin]			Quantity of mRNA for HA relative to mRNA for GAPDH [2]: less than 10%
COc1ccc(-c2oc3cc(O)cc(O)c3c(=O)c2O)cc1 [kemferide]	did not have any cell surviving activity		
O=C(O)[C@]1(O)C[C@@H](O)[C@@H](O)[C@H](O)C1 [Quinic acid, quinic acid]	ineffective	> 1560 µM	
O=C(/C=C/c1ccc(O)c(O)c1)O[C@@H]1C[C@](O)(C(=O)O)C[C@@H](O)[C@H]1O [Chlorogenic acid]	effective	342 µM	Cell survival rate of infected cells at 300 μg/mL [1]: dropped to nearly zero; Effect on cell survival of infected cells at 100 μg/mL [1]: effective; Cell toxicity [3]: exhibited cell toxicities
CC(C)=CCc1cc(/C=C/C(=O)O)cc(CC=C(C)C)c1O [artepillin C]	did not have any cell surviving activity		
O=C(O)/C=C/c1ccc(O)c(O)c1 [Caffeic acid, caffeic acid]	effective	191 µM	Cell survival rate of infected cells at 300 μg/mL [1]: dropped to nearly zero; Effect on cell survival of infected cells at 100 μg/mL [1]: effective; Cell toxicity [3]: exhibited cell toxicities
CC(C)=CCc1cc(/C=C/C(=O)O)ccc1O [drupanin]	did not have any cell surviving activity		
O=C(/C=C/c1ccc(O)c(O)c1)O[C@H]1[C@H](O)C[C@](O)(C(=O)O)C[C@H]1OC(=O)/C=C/c1ccc(O)c(O)c1 [4,5-Dicaffeoylquinic acid, 4,5-dicaffeoylquinic acid]	effective	281 µM	
